In data set [1] the target is T1, ADAM17 (Homo sapiens, UniProt P78536).
T1 construct: purchased R & D Systems (Minneapolis, MN, USA)
The experiment in a line: ADAM17 enzyme assay with glycosylated substrate DM2. The data set is classed as biochemical. On the procedure:
ADAM10 and ADAM17 assays. Both assays were performed as published previously by us. Briefly, both assays followed the same general protocol. In total, 5 μL of the 2× enzyme solution (20 nM) in an assay buffer (10 mM Hepes, 0.001% Brij-35, pH 7.5) were added to solid bottom black 384 plates (Nunc, ThermoFisher, Waltham, MA, USA, cat# 264705). Next, test compounds and pharmacological controls were added to the corresponding wells using a 384-pin tool device (V & P Scientific, San Diego, CA, USA). After 60 min of incubation at RT, the reactions were started via the addition of 5 μL of the 2× solutions of glycosylated substrate DM2 (20 μM). The reactions were incubated at RT for 2 h, after which the fluorescence was measured using a Biotek H1 multimode microplate imager (λexcitation = 360 nm, λemission = 460 nm). IC50 values were calculated by fitting normalized data to the sigmoidal log vs. the response equation utilizing a non-linear regression analysis from GraphPad Prizm 9.

The test system of data set [2] is IL-10. The experiment in a line: RA serum marker ELISA, IL-10, CIA mice. The data set is classed as in vivo, C57 BL/6 mice. On the procedure:
(§1) The sample size for therapeutic evaluation was calculated using power analysis based on experimental data from similar studies. In a two-sided test and setting the α value at 0.05 and desired power at 0.95, the sample size turned out to be 5 per group. We also expected deaths during the experiments; therefore, we used the formula Nt = N/1-q, where Nt is the number of mice initially used, N is the number required at the end of the study, and q is the proportion of attrition, which is generally 10%. Thus, at the end of the study period, we expected to have data from at least 6 mice per group, which is enough to attain statistical significance if it exists. Data were analyzed using a one-way ANOVA followed by Dunnett’s test compared with the vehicle control. At the end of the study, the mice were anesthetized and sacrificed using CO2 euthanasia. The hind paws of the mice were subjected to a histopathological examination, and the serum was analyzed for CRP, TNF-α, IL-6, and IL-10, as described in the below sections.
(§2) RA serum marker analysis. Blood was collected from the tail vein, and 100 µL was used for the assays. All assays were conducted using the manufacturer’s instructions for the respective assay kits. The following assay kits were purchased: Mouse TNF-α GENLISA™ ELISA (Krishgen BioSystems cat#KB2145, Mumbai, India), Mouse IL-10 GENLISA™ ELISA (Krishgen BioSystems cat#KB2072), Mouse hsC-Reactive Protein, hs-CRP GENLISA™ ELISA (Krishgen BioSystems cat#KLM0318), Mouse IL-6 GENLISA™ ELISA (Krishgen BioSystems cat#KB2068).
(In general: ELISA stands for enzyme-linked immunosorbent assay.)

In data set [3] the test system is C-reactive protein (CRP). Description: RA serum marker ELISA, CRP, CIA mice. The data set is classed as in vivo, C57 BL/6 mice. As for the experimental part:
as §1, §2

The subject of data set [4] is OPRD1. Also noted: method as in PMID 34817776. Conditions: cited from earlier work.
Setting [5] is: CID 3117694 50 mg/kg/day, indomethacin 2.5 mg/kg.

pIC50: −log10 of the molar value. Bounds are passed on as bounds.

The pIC50 is −log10 of the IC50, conventionally taken in molar units. The low end stands for a large IC50, the high end for a small IC50.

T1 sequence (P78536 215-824, species assumed): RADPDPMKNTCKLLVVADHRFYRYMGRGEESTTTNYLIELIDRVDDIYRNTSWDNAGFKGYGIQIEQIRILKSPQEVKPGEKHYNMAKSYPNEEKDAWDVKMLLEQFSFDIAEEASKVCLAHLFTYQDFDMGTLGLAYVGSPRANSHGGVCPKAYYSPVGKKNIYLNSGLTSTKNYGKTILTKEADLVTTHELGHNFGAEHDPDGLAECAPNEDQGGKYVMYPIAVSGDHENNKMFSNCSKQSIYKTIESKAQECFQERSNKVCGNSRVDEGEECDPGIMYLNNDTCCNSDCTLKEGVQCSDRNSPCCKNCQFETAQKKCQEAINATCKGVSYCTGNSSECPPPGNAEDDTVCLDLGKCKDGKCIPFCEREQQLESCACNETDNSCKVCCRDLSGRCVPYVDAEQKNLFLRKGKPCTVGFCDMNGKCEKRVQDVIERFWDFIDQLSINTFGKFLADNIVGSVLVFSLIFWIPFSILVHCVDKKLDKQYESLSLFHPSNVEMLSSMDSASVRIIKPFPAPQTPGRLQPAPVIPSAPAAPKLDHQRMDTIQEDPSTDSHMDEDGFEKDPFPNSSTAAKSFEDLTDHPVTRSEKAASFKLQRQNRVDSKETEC

On to `COc1cccc(C(=O)NNC(=O)C(=O)Nc2ccc(C)c(Cl)c2)c1` [CID 3117694], for which, in data set [1], the pIC50 was less than 4.00. In data set [2] (setting [5]), the “IL-10 blood level vs healthy control” value is given as “decreased the markers to the level of the healthy control”. Also, the “concentration of IL-10 in the blood of arthritic mice” value in data set [2] (all tested doses (10, 30, 50 mg/kg), vs vehicle control) is listed as “lowers”. Besides, the “concentration of CRP in the blood of arthritic mice” value in data set [3] (30 and 50 mg/kg, vs vehicle control) is “lowers”. For the same compound, the “CRP blood level vs healthy control” value in data set [3] (setting [5]) is “decreased the markers to the level of the healthy control”. Also, in data set [4], the “activity against OPRD1” value is “inactive”.

The record behind these values is publication PMC10819767, “An ADAM10 Exosite Inhibitor Is Efficacious in an In Vivo Collagen-Induced Arthritis Model” (Pharmaceuticals, 2024).
